The text below walks through data of article PMC5896266, “Development of Matrix Metalloproteinase-2 Inhibitors for Cardioprotection” (Frontiers in Pharmacology, 2018).

Structures are written as SMILES.

Type in all cases: biochemical
Experiment [1] addresses T1, Human MMP-2 catalytic domain (Homo sapiens, UniProt P08253, DEL222-396).
T1 construct: Human MMP-2 catalytic domain (residues 110-221, 397-455); made in house
In words: Fluorometric MMP-2 inhibition assay (MTS), catalytic domain. The method, then:
In vitro MMP-2 activity was then measured, using a fluorometric assay in a 384 well format. Human MMP-2 catalytic domain (residues 110-221, 397-455) (Feng et al., [2000]) was expressed in E. coli in form of inclusion bodies. The protein was refolded and then purified by means of Ni-NTA affinity and anion exchange chromatography. Inhibition assays were carried out in 50 mM Tris, 5 mM CaCl2, 300 mM NaCl, 20 μM ZnSO4, pH = 7.5 buffer. For inhibition studies the catalytic domain of the enzyme was pre-incubated with varying amount of inhibitor for 30 min. […] After 1 h incubation at 37°C the fluorescence was detected using a Wallac 1420 Victor2 microplate reader at 320 nm/405 nm Ex/Em wavelength. As an alternative substrate we also used 5-FAM-Pro-Leu-Gly-Leu-Dap(QXL™ 520)-Ala-Arg-NH2, where the fluorescence was detected at 485 nm/520 nm. For each inhibitor candidate, the percentage of inhibition was determined in duplicate experiments at six inhibitor concentrations, chosen to observe a 5–95% range of inhibition.
Since hydroxamic acids are reported as the primary zinc-binding motif, we intended to select such a library from the AMRI 200,000 member non-exclusive compound repository as a starting point of our drug discovery efforts. Since only a few compounds were available in the repository as hydroxamic acids and the conversion of acids to hydroxamic acids were not applicable to HT parallel synthesis, we decided first to select free acids from the AMRI's compound collection. […] The selected acids were screened in a fluorescent assay using a recombinant human MMP-2 catalytic fragment and a synthetic peptide substrate. […] The hydroxamic acid pairs of the previously measured acids were then tested.

Experiment [2] addresses T2, MMP-2 enzyme isolated from rat heart (Rattus norvegicus, UniProt P33436).
T2 construct: we used full-length, active MMP-2 enzymes isolated from healthy young adult rat hearts; from tissue; host or cells: rat heart homogenate (healthy young adult rats)
T2 sequence (P33436 110-662): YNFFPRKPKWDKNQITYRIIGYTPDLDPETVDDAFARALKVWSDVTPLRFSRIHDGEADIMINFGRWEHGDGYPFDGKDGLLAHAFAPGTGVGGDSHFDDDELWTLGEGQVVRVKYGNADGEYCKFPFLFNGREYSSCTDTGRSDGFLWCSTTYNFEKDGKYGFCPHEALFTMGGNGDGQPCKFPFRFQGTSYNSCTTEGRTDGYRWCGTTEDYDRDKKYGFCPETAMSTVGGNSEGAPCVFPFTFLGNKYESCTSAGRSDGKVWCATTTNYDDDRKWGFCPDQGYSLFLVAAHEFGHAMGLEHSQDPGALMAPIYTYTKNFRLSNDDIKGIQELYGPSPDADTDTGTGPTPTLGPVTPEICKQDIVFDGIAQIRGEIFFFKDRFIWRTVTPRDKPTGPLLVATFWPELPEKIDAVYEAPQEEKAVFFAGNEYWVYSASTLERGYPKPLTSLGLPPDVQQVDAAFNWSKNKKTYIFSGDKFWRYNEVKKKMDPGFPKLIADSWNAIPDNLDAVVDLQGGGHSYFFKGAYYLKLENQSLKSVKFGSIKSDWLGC
The experiment in a line: Gelatin zymography on cardiac MMP-2. Here is the method:
Gelatin zymography was performed as described previously (Kupai et al., [2010]; Bencsik et al., [2017]). MMP-2 was isolated from rat heart homogenates as follows: 50 μg protein/lane were loaded and separated by electrophoresis under non-reducing conditions on an 8% SDS-polyacrylamide gels copolymerized with 2 mg/ml gelatin from porcine skin (Sigma-Aldrich; St. Louis, MO). After electrophoresis, gels were washed in 2.5% Triton-X 100 with gentle agitation and then incubated for 20 h at 37°C in zymography development buffer (50 mM Tris-HCl, pH 7.5, containing 5 mM CaCl2, 200 mM NaCl) in the presence or abscence of the MMP inhibitor compounds. Zymographic gels were stained in a 0.05% Coomassie Brilliant Blue R-250 solution followed by destaining, and then zymograms were scanned. MMP activity was detected as a colorless transparent zone on a blue background and the clear bands in the gel were quantified by densitometry using the Quantity One software (Bio-Rad, Hercules, CA). The obtained density values were measured and percentage of inhibition values were then calculated.
To confirm the MTS screen results, we tested the potential MMP inhibitor molecules on MMP-2 enzyme isolated from rat heart in vitro. Therefore, we applied the MMPIs at 1 and 100 μM final concentration in the enzyme's development buffer (Table 3).
After the chemical optimization of the novel MMP inhibitor lead candidates, we determined their IC50 values by using gelatin zymography. During zymographic analysis, we used full-length, active MMP-2 enzymes isolated from healthy young adult rat hearts. Subsequently, the cardio-cytoprotective effects of the selected candidates having the lowest IC50 values to MMP-2 were tested in cultured neonatal cardiac myocytes subjected to simulated I/R injury. Cardiac myocyte cell culture assay allowed a relatively high throughput biological efficacy testing (Gorbe et al., [2010]) of the selected lead candidates in several dose ranges at different levels of inhibition of MMP-2 activity.

Another experiment concerns the target T3, MMP-1 (Homo sapiens, UniProt P03956).
T3 sequence (P03956 100-469): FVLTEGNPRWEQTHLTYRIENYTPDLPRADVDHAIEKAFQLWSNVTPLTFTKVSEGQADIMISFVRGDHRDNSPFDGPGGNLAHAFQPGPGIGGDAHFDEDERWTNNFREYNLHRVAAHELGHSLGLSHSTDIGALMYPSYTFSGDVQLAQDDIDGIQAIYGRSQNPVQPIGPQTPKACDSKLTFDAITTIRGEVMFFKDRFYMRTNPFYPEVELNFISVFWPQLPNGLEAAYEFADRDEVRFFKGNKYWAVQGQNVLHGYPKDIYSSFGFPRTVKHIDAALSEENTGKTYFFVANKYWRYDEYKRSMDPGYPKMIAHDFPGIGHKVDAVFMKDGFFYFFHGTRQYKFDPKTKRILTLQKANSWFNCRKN
In words: MMP-1 inhibition (inhibitory profile). The settings on record: Table 2. Here is the method:
The compounds were measured for MMP-1, 2, 9, 13 to determine their inhibitory profile. Efficiency Index amplifies the two major required effects, selectivity against MMP-1 and the inhibitory activity.

T1 sequence (P08253 with tags, fused parts or gaps DEL222-396 limits assumed): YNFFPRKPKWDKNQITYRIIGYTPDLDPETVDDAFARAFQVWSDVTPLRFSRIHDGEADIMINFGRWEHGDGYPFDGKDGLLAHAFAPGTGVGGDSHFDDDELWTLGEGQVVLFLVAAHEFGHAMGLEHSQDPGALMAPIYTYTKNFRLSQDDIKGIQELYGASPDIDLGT

One may read the IC50 as the concentration that inhibits the measured activity by half. The EC50 is the concentration needed to bring the measured effect to its halfway point. A word on the IC20: it is the concentration needed for an effect of 20%. For `O=C(O)c1c[nH]c(CN(Cc2ccc(F)cc2)Cc2ccc(OCc3ccccc3)cc2)n1` [MMPI-1154], in experiment [1] (MMP-2 vs MMP-1, Table 2 values), the “selectivity over MMP-1” value is given as 1.5 fold. Further, the IC50 was 6.6 µM in experiment [1] (Table 2); 2.5 µM in experiment [2] (most effective concentration in cell culture experiments, read-out: IC50 value (MMP-2 inhibition)); 10 µM on MMP-1. In addition, the inhibition at 100 µM in experiment [2] (100 μM, cardiac MMP-2, gelatin zymography, read-out: Inhibition (%)±SEM at 100 μM final MMP inhibitor concentration) was 100%. For the same molecule, the EC50 in experiment [2] (concentration labelled EC50 in Supplementary Figure 4, doses calculated according to IC doses in vitro) is 2.5 µM. For the same molecule, the IC20 in experiment [2] (concentration used in the ex vivo model, read-out: IC20 value (MMP-2 inhibition)) was 1 µM.
